# Measurements from ChEMBL document CHEMBL1201862, “PubChem BioAssay data set” (2004).
#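 Cultured in 96-well plates, cells were exposed to test compound for 48 hours across five concentrations. GI50: concentration for 50% inhibition of growth.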 Calls of active or inactive are those of the source. Cut-off read from the data, not from the text of the source: active = GI50 up to about 1.1 µM and inactive = higher.
# Assays:
# Assay in all cases: DTP human tumour cell line panel, 48 h
# [1] = test system: SF-268
# [2] = test system: RPMI-8226
# [3] = test system: HOP-62
# [4] = test system: MDA-N
# [5] = test system: MDA-MB-435
# [6] = test system: SF-539
# [7] = test system: EKVX
# [8] = test system: OVCAR-4
# [9] = test system: SK-MEL-2
# [10] = test system: NCI-H460
# [11] = test system: UO-31
# [12] = test system: MCF7
# [13] = test system: HCT-15
# [14] = test system: PC-3
# [15] = test system: LOX IMVI
# [16] = test system: SK-MEL-5
# [17] = test system: TK-10
# [18] = test system: HT-29
# [19] = test system: COLO 205
# [20] = test system: HCT-116
SMILES,GI50 [1],GI50 [2],GI50 [3],GI50 [4],GI50 [5],GI50 [6],GI50 [7],GI50 [8],GI50 [9],GI50 [10],GI50 [11],GI50 [12],GI50 [13],GI50 [14],GI50 [15],GI50 [16],GI50 [17],GI50 [18],GI50 [19],GI50 [20]
CC(C)(C)c1cc(C(P(=O)(c2ccccc2)c2ccccc2)P(=O)(c2ccccc2)c2ccccc2)cc(C(C)(C)C)c1O,2.93 µM (inactive),3.19 µM (inactive),2.56 µM (inactive),1.91 µM (inactive),1.9 µM (inactive),2.25 µM (inactive),2.98 µM (inactive),3.35 µM (inactive),1.87 µM (inactive),2.11 µM (inactive),2.24 µM (inactive),2.28 µM (inactive),2.96 µM,2.67 µM (inactive),1.92 µM (inactive),1.54 µM (inactive),4.68 µM (inactive),2.08 µM (inactive),1.87 µM (inactive),1.58 µM (inactive)
CC(=O)CCC[C@@H](C)[C@@H]1O[C@H]([C@@]2(C)CCC(=O)O2)C[C@H]2C(CSc3ccccc3)C(=O)O[C@@H]12 (stereo not given in full),20 µM (inactive),13.3 µM (inactive),65.2 µM (inactive),13.8 µM (inactive),16.1 µM (inactive),14.6 µM (inactive),9.98 µM (inactive),13.2 µM (inactive),17.3 µM (inactive),20.7 µM (inactive),14.2 µM (inactive),9.55 µM (inactive),17.3 µM,19 µM (inactive),12.4 µM (inactive),21.4 µM (inactive),12.6 µM (inactive),17 µM (inactive),15.6 µM (inactive),15.6 µM (inactive)
Cn1ccnc1Sc1ccc(/C=N/NC(=O)c2ccccc2O)cc1[N+](=O)[O-],48.8 µM (inactive),0.0723 µM (active),73.6 µM (inactive),61.5 µM (inactive),57 µM (inactive),60.7 µM (inactive),94 µM (inactive),72.6 µM (inactive),37.8 µM (inactive),69.5 µM (inactive),79.1 µM (inactive),84.3 µM (inactive),39.6 µM,56.9 µM (inactive),65.2 µM (inactive),55.7 µM (inactive),> 100 µM (inactive),33.7 µM (inactive),22.2 µM (inactive),70.1 µM (inactive)
O=C(O)CN(CC(=O)O)C1CCCCC1N1CC(=O)OC(=O)C1 (stereo not given),61.7 µM (inactive),> 100 µM (inactive),> 100 µM (inactive),> 100 µM (inactive),> 100 µM (inactive),> 100 µM (inactive),> 100 µM (inactive),> 100 µM (inactive),> 100 µM (inactive),> 100 µM (inactive),> 100 µM (inactive),69.3 µM (inactive),95.9 µM,> 100 µM (inactive),> 100 µM (inactive),> 100 µM (inactive),> 100 µM (inactive),38.4 µM (inactive),> 100 µM (inactive),> 100 µM (inactive)
COC(=O)c1cc(C)n(CN(Cc2ccccc2)Cn2nc(C(=O)OC)cc2C)n1,> 89.9 µM (inactive),> 41 µM (inactive),> 100 µM (inactive),> 92.5 µM (inactive),> 100 µM (inactive),> 45.9 µM (inactive),66.5 µM (inactive),> 64.1 µM (inactive),> 100 µM (inactive),> 100 µM (inactive),> 46.1 µM (inactive),> 66.5 µM (inactive),> 40.7 µM,> 65.5 µM (inactive),> 100 µM (inactive),99.1 µM (inactive),> 100 µM (inactive),> 52.7 µM (inactive),> 46.9 µM (inactive),> 43 µM (inactive)
Clc1cc(Cl)cc(C2ON=C(c3ccccc3)N2C23CC4CC(CC(C4)C2)C3)c1 (stereo not given),> 10 µM (inactive),> 10 µM (inactive),> 10 µM (inactive),> 10 µM (inactive),> 10 µM (inactive),> 10 µM (inactive),> 10 µM (inactive),> 10 µM (inactive),> 10 µM (inactive),> 10 µM (inactive),> 10 µM (inactive),> 10 µM (inactive),> 10 µM,> 10 µM (inactive),> 10 µM (inactive),> 10 µM (inactive),> 10 µM (inactive),> 10 µM (inactive),> 10 µM (inactive),> 10 µM (inactive)
CC1(C)OCC2OC3(c4nc(C#N)c(N)o4)OC(C)(C)OC3C2O1 (stereo not given),> 100 µM (inactive),> 100 µM (inactive),> 100 µM (inactive),> 100 µM (inactive),> 100 µM (inactive),> 100 µM (inactive),> 100 µM (inactive),> 100 µM (inactive),> 100 µM (inactive),> 100 µM (inactive),> 100 µM (inactive),> 100 µM (inactive),> 100 µM,> 100 µM (inactive),> 100 µM (inactive),> 100 µM (inactive),> 100 µM (inactive),> 100 µM (inactive),> 100 µM (inactive),> 100 µM (inactive)
C=C1CC=CC(C)(C)C1C/C=C(\C)C(O)CBr (stereo not given),> 100 µM (inactive),25.4 µM (inactive),> 100 µM (inactive),42.6 µM (inactive),39.9 µM (inactive),29.9 µM (inactive),> 100 µM (inactive),76 µM (inactive),> 100 µM (inactive),95.7 µM (inactive),35.7 µM (inactive),36.2 µM (inactive),51.1 µM,47.6 µM (inactive),19.1 µM (inactive),62.8 µM (inactive),89.9 µM (inactive),51.8 µM (inactive),39 µM (inactive),18.7 µM (inactive)
O=C(CCCN1CCC2(CC1)NC(=O)c1ccccc1O2)c1ccc(F)cc1,> 100 µM (inactive),76.6 µM (inactive),> 100 µM (inactive),> 100 µM (inactive),> 100 µM (inactive),> 100 µM (inactive),> 100 µM (inactive),91 µM (inactive),> 100 µM (inactive),> 100 µM (inactive),73.5 µM (inactive),94.6 µM (inactive),> 100 µM,73.8 µM (inactive),80 µM (inactive),44.9 µM (inactive),81.7 µM (inactive),43.3 µM (inactive),50.1 µM (inactive),> 100 µM (inactive)
C/C(=N\Nc1nc2ccccc2o1)c1ccc2ccccc2n1,5.06 µM (inactive),2.69 µM (inactive),4.53 µM (inactive),6.49 µM (inactive),6.35 µM (inactive),7.36 µM (inactive),0.458 µM (active),1.3 µM (inactive),1.73 µM (inactive),3.7 µM (inactive),2.09 µM (inactive),6.12 µM (inactive),1.08 µM,1.83 µM (inactive),2.86 µM (inactive),3.15 µM (inactive),6.92 µM (inactive),1.89 µM (inactive),3.85 µM (inactive),2.55 µM (inactive)
COC(=O)C1(O)c2ccccc2N=C2C(=O)c3ccccc3N21 (stereo not given) [METHYLISATOID],> 100 µM (inactive),> 100 µM (inactive),> 100 µM (inactive),15.7 µM (inactive),12.2 µM (inactive),> 100 µM (inactive),> 100 µM (inactive),> 100 µM (inactive),> 100 µM (inactive),> 100 µM (inactive),> 100 µM (inactive),> 100 µM (inactive),> 100 µM,36.6 µM (inactive),59.7 µM (inactive),49.8 µM (inactive),> 100 µM (inactive),> 100 µM (inactive),> 100 µM (inactive),> 100 µM (inactive)
C[C@H]1CC[C@]2(NC1)O[C@H]1C[C@H]3[C@@H]4CC[C@H]5C[C@@H](O[C@@H]6O[C@H](CO)[C@H](O[C@@H]7O[C@H](CO)[C@@H](O)[C@H](O[C@@H]8OC[C@@H](O)[C@H](O)[C@H]8O)[C@H]7O[C@@H]7O[C@H](CO)[C@@H](O)[C@H](O)[C@H]7O)[C@H](O)[C@H]6O)CC[C@]5(C)[C@H]4CC[C@]3(C)[C@H]1[C@@H]2C [TOMATINE],1.55 µM (inactive),0.766 µM (active),1.63 µM (inactive),0.558 µM (active),1.41 µM (inactive),1.56 µM (inactive),0.836 µM (active),1.39 µM (inactive),1.68 µM (inactive),2.18 µM (inactive),1.42 µM (inactive),2.32 µM (inactive),2.48 µM,0.719 µM (active),2.17 µM (inactive),2.23 µM (inactive),1.54 µM (inactive),1.91 µM (inactive),2 µM (inactive),1.7 µM (inactive)
